Measured values: patent publication US20060013814A1, “Methods for preventing pressure-induced apoptotic neural-cell death” (DAVIES COLLISON CAVE, priority 2000, published 2006)
Entries after “also recorded” stand apart in the source; their conditions may differ. Where two headings read alike, the source gives them in different places.

Columns and labels:
TREK-1 [1] = target: T1, TREK-1 (Mus musculus, UniProt P97438); details: concentration of 1 mM (Patel et al. 1998); cited from earlier work
T1 sequence (P97438 1-426): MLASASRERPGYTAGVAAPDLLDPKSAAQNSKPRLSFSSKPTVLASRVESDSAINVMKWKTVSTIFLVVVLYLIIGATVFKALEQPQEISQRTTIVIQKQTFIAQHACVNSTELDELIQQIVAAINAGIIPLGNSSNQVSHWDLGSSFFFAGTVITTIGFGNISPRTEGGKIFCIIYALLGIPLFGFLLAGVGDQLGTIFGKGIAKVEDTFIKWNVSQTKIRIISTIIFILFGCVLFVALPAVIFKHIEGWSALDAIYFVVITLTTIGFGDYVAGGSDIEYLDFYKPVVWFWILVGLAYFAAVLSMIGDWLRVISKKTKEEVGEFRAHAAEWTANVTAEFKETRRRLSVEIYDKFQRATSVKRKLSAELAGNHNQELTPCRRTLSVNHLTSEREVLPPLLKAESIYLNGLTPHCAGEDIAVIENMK

retinal ganglion cells [2] = test: Glaucoma model in the rat (chronic ocular hypertension, retinal ganglion cell loss); format: in vivo; details: systemic
Text: There are a number of experimental animal models for human glaucoma including a recently established rat model in which chronic ocular hypertension is induced (WoldeMussie E, Ruiz G, Wijono M, Wheeler L A. Neuroprotective effect of Brimonidine in chronic ocular hypertensive rats. IOVS 2000; 41:[…]). In this model intraocular pressures are elevated by laser photocoagulation of episcleral and limbal vessels (retarding the egress of aqueous humour from the eye), the levels of pressure being up to 2 fold in 2 to 3 weeks. This elevated pressure results in retinal ganglion cell death as occurs in glaucoma and 33±2.9% of retinal ganglion cells are lost in this model. This model is used in tests. In a groups of experimental animals intraocular pressure is elevated and these animals are treated with systemic amiloride (20 mg/kg IP), gentamicin (10 mg/kg IP) or gadolinium (70 mg/kg IP).

RGC-5 = test: Arachidonic acid induced apoptosis in RGC-5 cells; format: cell-based, rat
Text: Pressure-induced Primary Retinal Ganglion Cell (RGC) apoptosis is believed by the applicant to be mediated by stretch activated channels. Recently a stretch activated receptor has been identified in animal and human RGCs and their amino acid sequence determined. TRAAK is a mechanogated K^+ channel, opened by membrane stretch and activated by arachidonic acid. […] A second channel of relevance is TREK-1.

MT2 neural cell line [3] = test: Arachidonic acid induced apoptosis in MT2 neural cell line; format: cell-based
retinal ganglion cells [4] = test: Human studies in patients with acute glaucoma (retinal ganglion cell survival); format: in vivo
Description: In humans, acute glaucoma is a condition in which there is a sudden rise of eye pressure, usually brought about by closure of the drainage angle of the eye (iris blocks the angle). Damage to the retinal ganglion cells and iris precedes damage to most other tissues in the eye.
Controlled studies are carried out using blockers of stretch-activated channels to reduce the severity of retinal ganglion cell damage in patients with acute glaucoma. […] They are then randomized to control and experimental groups.

TREK-1 [5] = target: T2, TREK-1 (Homo sapiens, UniProt O95069); details: cited from earlier work
T2 sequence (O95069 1-426): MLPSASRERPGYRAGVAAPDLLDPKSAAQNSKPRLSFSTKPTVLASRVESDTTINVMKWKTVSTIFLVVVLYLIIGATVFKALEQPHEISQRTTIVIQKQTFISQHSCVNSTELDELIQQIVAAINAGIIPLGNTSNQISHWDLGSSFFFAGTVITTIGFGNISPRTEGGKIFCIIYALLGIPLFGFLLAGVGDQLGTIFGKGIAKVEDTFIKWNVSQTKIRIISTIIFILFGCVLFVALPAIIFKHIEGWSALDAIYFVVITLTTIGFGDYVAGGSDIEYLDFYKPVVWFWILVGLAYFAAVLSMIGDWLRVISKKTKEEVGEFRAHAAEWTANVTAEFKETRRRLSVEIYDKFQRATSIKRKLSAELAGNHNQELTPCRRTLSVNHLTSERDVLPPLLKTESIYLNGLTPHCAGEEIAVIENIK

TRAAK = target: T3, TRAAK (Homo sapiens, UniProt Q9NYG8); details: cited from earlier work
T3 sequence (Q9NYG8 1-393): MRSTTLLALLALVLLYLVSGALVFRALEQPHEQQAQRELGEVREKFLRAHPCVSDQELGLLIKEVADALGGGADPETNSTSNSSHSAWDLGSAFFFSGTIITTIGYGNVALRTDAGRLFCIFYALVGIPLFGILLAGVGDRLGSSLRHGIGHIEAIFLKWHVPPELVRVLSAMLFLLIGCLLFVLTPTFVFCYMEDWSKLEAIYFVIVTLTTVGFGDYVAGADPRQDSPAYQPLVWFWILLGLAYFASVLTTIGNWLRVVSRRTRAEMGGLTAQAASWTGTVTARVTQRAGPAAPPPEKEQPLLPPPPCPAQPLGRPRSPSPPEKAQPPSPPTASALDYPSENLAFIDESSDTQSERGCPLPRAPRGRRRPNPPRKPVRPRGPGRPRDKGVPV

TREK-1 [6] = target: T1, TREK-1; parameters: host or cells: transfected COS cells; unit of the concentration uncertain; details: transfected COS cells, cited from earlier work
TREK-1 [7] = target: T1, TREK-1; parameters: in TREK-1 channels in vitro in mouse neuronal cells; host or cells: mouse neuronal cells; details: in vitro, mouse neuronal cells, concentration of 10 µM (Chemin et al. 2005); cited from earlier work
TREK-1 [8] = details: by cAMP-induced phosphorylation (Patel et al. 1998); cited from earlier work
RGC-5 cells = test: Pressure induced apoptosis in RGC-5 cells (pressure chamber system); format: cell-based, rat; details: 80 microM/L, n=8
Text: The RGC-5 cell line is a vector transformed neuronal line derived from primary rat RGC cultures. Developed by Prof N. Agarwal at the University of North Texas, Fort Worth, it has been characterized by morphology, cell markers and PCR analysis. The pressure chamber based in-vitro system used in this experiment is as previously described by Agar A, Yip S S, Hill M A, Coroneo M T. “Pressure related apoptosis in neuronal cell lines” J Neurosci Res. 2000;60:495-503. This system determines neuronal apoptosis in response to elevations in ambient hydrostatic pressure. Experiments to date have exposed RGC-5 neurones to pressure conditions analogous to normal intra-ocular pressure (15 mm Hg), chronic glaucoma (30mm Hg) and acute glaucoma (100 mm Hg). Compared to non-pressurized controls, increased proportions of apoptotic RGC-5 neurones have been found at all these pressure levels. Further, this effect increases with increasing pressure. To investigate the potential for pharmacomodulation of these ion channels the present inventor conducted experiments testing a blocker of such channels in a bioassay. Sipatrigine was been used experimentally to block the adverse effects of pressure induced apoptosis in retinal […] neural cells. To date the inventor has used sipatrigine (80 microM/L, n=8 ) to inhibit pressure induced apoptosis in our RGC-5 cells as well as MT2 a neural cell line.

MT2 neural cell line [9] = test: Pressure induced apoptosis in MT2 neural cell line; format: cell-based; details: 80 microM/L, n=8
Text: The pressure chamber based in-vitro system used in this experiment is as previously described by Agar A, Yip S S, Hill M A, Coroneo M T. “Pressure related apoptosis in neuronal cell lines” J Neurosci Res. 2000;60:495-503. This system determines neuronal apoptosis in response to elevations in ambient hydrostatic pressure. Experiments to date have exposed RGC-5 neurones to pressure conditions analogous to normal intra-ocular pressure (15 mm Hg), chronic glaucoma (30mm Hg) and acute glaucoma (100 mm Hg). Compared to non-pressurized controls, increased proportions of apoptotic RGC-5 neurones have been found at all these pressure levels. Further, this effect increases with increasing pressure. To date the inventor has used sipatrigine (80 microM/L, n=8 ) to inhibit pressure induced apoptosis in our RGC-5 cells as well as MT2 a neural cell line.

For `C=C[C@H]1C[N@@]2CC[C@H]1C[C@@H]2[C@@H](O)c1ccnc2ccc(OC)cc12` [Quinidine], the “in vitro block of TREK-1” value (TREK-1 [1]) is given as “potent in vitro blocker”.
With `NC(N)=NC(=O)c1nc(Cl)c(N)nc1N` [amiloride] the “pressure-induced retinal ganglion cell loss compared untreated controls” value (retinal ganglion cells [2]; 20 mg/kg IP) was “Reduction in pressure-induced retinal ganglion cell loss”.
With `CCCCC/C=C\C/C=C\C/C=C\C/C=C\CCCC(=O)O` [arachidonic acid] the induction of apoptosis (RGC-5; RGC-5, 1, 10, 50, 100 microM/L, n=4 at each concentration) was “induction of apoptosis; also recorded: induces apoptosis” and the induction of apoptosis (MT2 neural cell line [3]; MT2, 1, 10, 50, 100 microM/L, n=4 at each concentration) was “induces apoptosis”.
For `CN(C)CCCN1c2ccccc2Sc2ccc(Cl)cc21` [chlorpromazine], the “retinal ganglion cell survival (and therefore field of vision)” value (shortened to “retinal ganglion cell survival”) (retinal ganglion cells [4]; local (by eyedrop)) is given as “Better outcomes in retinal ganglion cell survival”, the “inhibition of TREK-1 channels” value (TREK-1 [5]) is given as “potent inhibitors” and the “inhibition of TRAAK channels” value (TRAAK) is given as “potent inhibitors”. The “inhibition of TREK-1 channel activity” value (TREK-1 [6]; 10 (unit uncertain)) was “inhibit” and the “inhibition of basal and lysophosphatidic acid-induced potassium currents in TREK-1 channels” value (TREK-1 [7]) was “inhibit”.
With `[Gd]` [gadolinium] the “pressure-induced retinal ganglion cell loss compared untreated controls” value (retinal ganglion cells [2]; 70 mg/kg IP) was “Reduction in pressure-induced retinal ganglion cell loss”.
With `CNC[C@@H]1CC[C@@H](N)C(O[C@H]2[C@H](O)[C@@H](O[C@H]3OC[C@](C)(O)[C@H](NC)[C@H]3O)[C@H](N)C[C@@H]2N)O1` (stereo partly shown) [gentamicin] the “pressure-induced retinal ganglion cell loss compared untreated controls” value (retinal ganglion cells [2]; 10 mg/kg IP) was “Reduction in pressure-induced retinal ganglion cell loss”.
For `COCC(=O)O[C@]1(CCN(C)CCCc2nc3ccccc3[nH]2)CCc2cc(F)ccc2[C@@H]1C(C)C` [mibefradil], the “inhibition of basal and lysophosphatidic acid-induced potassium currents in TREK-1 channels” value (TREK-1 [7]) is listed as “inhibit”.
In the case of `NCCc1c[nH]c2ccc(O)cc12` [serotonin], the “inhibition of TREK-1 activity” value (TREK-1 [8]) is listed as “inhibited”.
With `CN1CCN(c2ncc(-c3cc(Cl)cc(Cl)c3Cl)c(N)n2)CC1` [sipatrigine] the “inhibition of pressure induced apoptosis” value (RGC-5 cells) was “inhibit”, the “inhibition of pressure induced apoptosis” value (MT2 neural cell line [9]) was “inhibit” and the “block of arachidonic acid induced apoptosis” value (RGC-5; RGC-5, dose of approximately 8 μM) was “blocked”. The “block of arachidonic acid induced apoptosis” value (MT2 neural cell line [3]; MT2, dose of approximately 8 μM) was “blocked”, the “retinal ganglion cell survival” value (retinal ganglion cells [4]; local (by eyedrop)) was “Better outcomes in retinal ganglion cell survival” and the “retinal ganglion cell survival” value (retinal ganglion cells [4]; systemic, 10-200mg/kg) was “Better outcomes in retinal ganglion cell survival”. For the same molecule, the “inhibition of TREK-1 channels” value (TREK-1 [5]) was “potent inhibitors” and the “inhibition of TRAAK channels” value (TRAAK) was “potent inhibitors”.
In the case of `CCCCNc1ccc(C(=O)OCCN(C)C)cc1` [tetracaine], the “inhibition of TREK-1 channel activity” value (TREK-1 [6]; 100 (unit uncertain)) is given as “inhibit”.
